Measurements from patent US8183239B2, “Substituted piperazines and piperidines as modulators of the neuropeptide Y2 receptor” (Janssen Pharmaceutica NV, priority 2005, dated 2012).

These compounds were tested against T1, Y2 receptors (Homo sapiens, UniProt P49146) (assay: Radioligand binding assay ([125I]PYY, KAN-Ts cell membranes)). Settings: Table 1, [125I]PYY 80 pM, average of results, read-out: IC50.
T1 construct: endogenous in cells; host or cells: KAN-Ts cells (membranes)
T1 sequence (P49146 1-381): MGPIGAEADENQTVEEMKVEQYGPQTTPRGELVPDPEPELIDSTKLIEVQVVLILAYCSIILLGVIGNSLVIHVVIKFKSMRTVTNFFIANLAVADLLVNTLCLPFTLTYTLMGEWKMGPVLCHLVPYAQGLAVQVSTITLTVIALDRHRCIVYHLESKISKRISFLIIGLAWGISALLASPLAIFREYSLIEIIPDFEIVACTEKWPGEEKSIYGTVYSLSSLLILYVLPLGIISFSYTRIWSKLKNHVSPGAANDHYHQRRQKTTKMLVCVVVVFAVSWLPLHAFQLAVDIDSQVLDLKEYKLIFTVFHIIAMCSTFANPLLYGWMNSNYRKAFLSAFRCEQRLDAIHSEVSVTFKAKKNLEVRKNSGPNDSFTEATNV
Experimental: Radioligand Binding Assay
KAN-Ts endogenously expressing Y2 receptors were used for the radioligand binding assay. Cells were grown to confluence on 150 cm^2 tissue culture plates, washed with phosphate-buffered saline (PBS), and scraped into 50 mL tubes. After centrifugation, the supernatant was aspirated, and the pellets frozen and stored at −80° C. Thawed pellets were homogenized with a polytron tissue grinder for 15 sec in 20 mM Tris-HCl, 5 mM EDTA. The homogenate was centrifuged at 800×g for 5 min and the collected supernatant was recentrifuged at 25000×g for 25 min. The resulting pellet was resuspended in binding buffer (20 mM HEPES, 120 mM NaCl, 0.22 mM KH2PO4, 1.3 mM CaCl2, 0.8 mM MgSO4). Membranes were incubated with [^125I]PYY (80 pM) in the presence or absence of test compound for 1 h at rt. The reaction was stopped by filtration through GF/C filter plates pre-soaked in 0.3% polyethylenimine and subsequently washed with Tris 50 mM, 5 mM EDTA buffer. Plates were dried for 1 h in a 55° C. oven, scintillation fluid was added and the radioactivity was counted in a Packard TopCount. Specific binding to the NPY receptor subtypes was determined by radioactivity that was bound in the presence of […]. Each binding experiment was repeated three to eight times, each in duplicate. IC50 values (i.e. concentration of unlabelled peptide or antagonist required to compete for 50% of specific binding to the radioligand) were calculated using the GraphPad Prism software (GraphPad Software Inc., San Diego Calif.) with a fit to a sigmoidal dose response curve. Data for compounds tested are presented in Tables 1 and 2 as an average of results obtained.

SMILES | IC50
COC(=O)C(c1ccccc1)N1CCN(c2ccc(NC(=O)c3ccccc3C)cc2F)CC1 (stereo not shown) [Example 62, {4-[2-Fluoro-4-(2-methyl-benzoylamino)-phenyl]-piperazin-1-yl}-phenyl-acetic acid methyl ester] | 1300 nM
COC(=O)C(c1ccccc1)N1CCN(c2ccc(NC(=O)c3ccccc3C(C)C)cc2F)CC1 (stereo not shown) [Example 64, {4-[2-Fluoro-4-(2-isopropyl-benzoylamino)-phenyl]-piperazin-1-yl}-phenyl-acetic acid methyl ester] | 1000 nM
COC(=O)C(c1ccccc1)N1CCN(c2ccc(NC(=O)c3ccccc3OC)cc2F)CC1 (stereo not shown) [Example 65, {4-[2-Fluoro-4-(2-methoxy-benzoylamino)-phenyl]-piperazin-1-yl}-phenyl-acetic acid methyl ester] | 1300 nM
CNc1ccccc1C(=O)Nc1ccc(N2CCN(C(C(=O)OC)c3ccccc3)CC2)c(F)c1 (stereo not shown) [Example 68, {4-[2-Fluoro-4-(2-methylamino-benzoylamino)-phenyl]-piperazin-1-yl}-phenyl-acetic acid methyl ester] | 1400 nM
CCc1cccc(C(=O)Nc2ccc(N3CCN(C(C(=O)OC)c4ccccc4)CC3)cc2)c1 (stereo not shown) [Example 69, {4-[4-(3-Ethyl-benzoylamino)-phenyl]-piperazin-1-yl}-phenyl-acetic acid methyl ester] | 25000 nM
COC(=O)C(c1ccccc1)N1CCN(c2ccc(NC(=O)c3cccc(C)c3)cc2)CC1 (stereo not shown) [Example 72, {4-[4-(3-Methyl-benzoylamino)-phenyl]-piperazin-1-yl}-phenyl-acetic acid methyl ester] | 6000 nM
CCCCCC(=O)Nc1ccc(N2CCN(C(C(=O)OC)c3ccccc3)CC2)cc1 (stereo not shown) [Example 83, [4-(4-Hexanoylamino-phenyl)-piperazin-1-yl]-phenyl-acetic acid methyl ester] | 3600 nM
COC(=O)C(c1ccccc1)N1CCN(c2ccc(NC(=O)CCc3ccccc3)cc2)CC1 (stereo not shown) [Example 84, Phenyl-{4-[4-(3-phenyl-propionylamino)-phenyl]-piperazin-1-yl}-acetic acid methyl ester] | 3350 nM
CCCC(C)C(=O)Nc1ccc(N2CCN(C(C(=O)OC)c3ccccc3)CC2)cc1 (stereo not shown) [Example 85, {4-[4-(2-Methyl-pentanoylamino)-phenyl]-piperazin-1-yl}-phenyl-acetic acid methyl ester] | 1300 nM
CCCCC(=O)Nc1ccc(N2CCN(C(C(=O)OC)c3ccccc3)CC2)cc1 (stereo not shown) [Example 86, [4-(4-Pentanoylamino-phenyl)-piperazin-1-yl]-phenyl-acetic acid methyl ester] | 4800 nM
COC(=O)C(c1ccccc1)N1CCN(c2ccc(NC(=O)CCC(C)C)cc2)CC1 (stereo not shown) [Example 87, {4-[4-(4-Methyl-pentanoylamino)-phenyl]-piperazin-1-yl}-phenyl-acetic acid methyl ester] | 1700 nM
COC(=O)C(c1ccccc1)N1CCN(c2ccc(NC(=O)c3cccnc3)cc2)CC1 (stereo not shown) [Example 98, Phenyl-(4-{4-[(pyridine-3-carbonyl)-amino]-phenyl}-piperazin-1-yl)-acetic acid methyl ester] | 12000 nM
COC(=O)C(c1ccccc1)N1CCN(c2ccc(NC(=O)c3ccccc3I)cc2F)CC1 (stereo not shown) [Example 99, {4-[2-Fluoro-4-(2-iodo-benzoylamino)-phenyl]-piperazin-1-yl}-phenyl-acetic acid methyl ester] | 250 nM
COC(=O)C(c1ccccc1)N1CCN(c2ccc(NC(=O)c3ccco3)cc2)CC1 (stereo not shown) [Example 101, (4-{4-[(Furan-2-carbonyl)-amino]-phenyl}-piperazin-1-yl)-phenyl-acetic acid methyl ester] | 20000 nM
COC(=O)C(c1ccccc1)N1CCN(c2ccc(NC(=O)c3ccoc3)cc2)CC1 (stereo not shown) [Example 102, (4-{4-[(Furan-3-carbonyl)-amino]-phenyl}-piperazin-1-yl)-phenyl-acetic acid methyl ester] | 20000 nM
COC(=O)C(c1ccccc1)N1CCN(c2ccc(NC(=O)c3ccsc3)cc2)CC1 (stereo not shown) [Example 103, Phenyl-(4-{4-[(thiophene-3-carbonyl)-amino]-phenyl}-piperazin-1-yl)-acetic acid methyl ester] | 2500 nM

The remaining lines, values ahead:

IC50 | SMILES
600 nM | CCc1ccccc1C(=O)Nc1ccc(N2CCN(C(C(=O)OC)c3ccccc3)CC2)c(F)c1 (stereo not shown) [Example 63, {4-[4-(2-Ethyl-benzoylamino)-2-fluoro-phenyl]-piperazin-1-yl}-phenyl-acetic acid methyl ester]
230 nM | COC(=O)C(c1ccccc1)N1CCN(c2ccc(NC(=O)CCC(C)C)cc2F)CC1 (stereo not shown) [Example 78, {4-[2-Fluoro-4-(4-methyl-pentanoylamino)-phenyl]-piperazin-1-yl}-phenyl-acetic acid methyl ester]
100 nM | CCCCC(CC)C(=O)Nc1ccc(N2CCN(C(C(=O)OC)c3ccccc3)CC2)c(F)c1 (stereo not shown) [Example 79, {4-[4-(2-Ethyl-hexanoylamino)-2-fluoro-phenyl]-piperazin-1-yl}-phenyl-acetic acid methyl ester]
400 nM | CCCCC(CC)C(=O)Nc1ccc(N2CCN(C(C(=O)OC)c3ccccc3)CC2)cc1 (stereo not shown) [Example 82, {4-[4-(2-Ethyl-hexanoylamino)-phenyl]-piperazin-1-yl}-phenyl-acetic acid methyl ester]
1000 nM | CCNC(=O)C(c1ccccc1)N1CCN(c2ccc(NC(=O)CCC(C)C)cc2F)CC1 (stereo not shown) [Example 88, 4-Methyl-pentanoic acid {4-[4-(ethylcarbamoyl-phenyl-methyl)-piperazin-1-yl]-3-fluoro-phenyl}-amide]
1040 nM | CCCCC(CC)C(=O)Nc1ccc(N2CCN(C(C(=O)NCC)c3ccccc3)CC2)c(F)c1 (stereo not shown) [Example 89, 2-Ethyl-hexanoic acid {4-[4-(ethylcarbamoyl-phenyl-methyl)-piperazin-1-yl]-3-fluoro-phenyl}-amide]
9700 nM | CCNC(=O)C(c1ccccc1)N1CCN(c2ccc(NC(=O)CCc3ccccc3)cc2F)CC1 (stereo not shown) [Example 90, N-{4-[4-(Ethylcarbamoyl-phenyl-methyl)-piperazin-1-yl]-3-fluoro-phenyl}-3-phenyl-propionamide]
10000 nM | CCNC(=O)C(c1ccccc1)N1CCN(c2ccc(NC(=O)CCN(CC)CC)cc2F)CC1 (stereo not shown) [Example 91, 3-Diethylamino-N-{4-[4-(ethylcarbamoyl-phenyl-methyl)-piperazin-1-yl]-3-fluoro-phenyl}-propionamide]
5100 nM | CCNC(=O)C(c1ccccc1)N1CCN(c2ccc(NC(=O)Cc3ccncc3)cc2F)CC1 (stereo not shown) [Example 92, N-Ethyl-2-{4-[2-fluoro-4-(2-pyridin-4-yl-acetylamino)-phenyl]-piperazin-1-yl}-2-phenyl-acetamide]
5000 nM | CCNC(=O)C(c1ccccc1)N1CCN(c2ccc(NC(=O)C(CC3CCCN3)C(F)(F)F)cc2F)CC1 (stereo not shown) [Example 93, N-{4-[4-(Ethylcarbamoyl-phenyl-methyl)-piperazin-1-yl]-3-fluoro-phenyl}-3,3,3-trifluoro-2-pyrrolidin-2-ylmethyl-propionamide]
10000 nM | CCNC(=O)C(c1ccccc1)N1CCN(c2ccc(NC(=O)C(CC3CCCCN3)C(F)(F)F)cc2F)CC1 (stereo not shown) [Example 94, N-{4-[4-(Ethylcarbamoyl-phenyl-methyl)-piperazin-1-yl]-3-fluoro-phenyl}-3,3,3-trifluoro-2-piperidin-2-ylmethyl-propionamide]
10000 nM | CCNC(=O)C(c1ccccc1)N1CCN(c2ccc(NC(=O)CN3CCN(C(C)C)CC3)cc2F)CC1 (stereo not shown) [Example 95, N-Ethyl-2-(4-{2-fluoro-4-[2-(4-isopropyl-piperazin-1-yl)-acetylamino]-phenyl}-piperazin-1-yl)-2-phenyl-acetamide]
9000 nM | CCNC(=O)C(c1ccccc1)N1CCN(c2ccc(NC(=O)C3CCN3C3CCCCC3)cc2F)CC1 (stereo not shown) [Example 96, 1-Cyclohexyl-azetidine-2-carboxylic acid {4-[4-(ethylcarbamoyl-phenyl-methyl)-piperazin-1-yl]-3-fluoro-phenyl}-amide]
1100 nM | CCNC(=O)C(c1ccccc1)N1CCN(c2ccc(NC(=O)/C=C\c3ccccc3OC)cc2F)CC1 (stereo not shown) [Example 97, (Z)—N-{4-[4-(Ethylcarbamoyl-phenyl-methyl)-piperazin-1-yl]-3-fluoro-phenyl}-3-(2-methoxy-phenyl)-acryl amide]
890 nM | CCNC(=O)C(c1ccccc1)N1CCN(c2ccc(NC(=O)c3cccnc3Br)cc2F)CC1 (stereo not shown) [Example 100, 2-Bromo-N-{4-[4-(ethylcarbamoyl-phenyl-methyl)-piperazin-1-yl]-3-fluoro-phenyl}-nicotinamide]
